Results from ChEMBL document CHEMBL1909046, “DrugMatrix in vitro pharmacology data”.

Tests used:
Interstitial collagenase = target: T1, Interstitial collagenase (Homo sapiens, UniProt P03956); test: biochemical; format: tissue-based, Rheumatoid synovial fibroblasts;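 also: MMP-1 enzyme inhibition assay using a peptide substrate; in other assays of this panel Not Active means under 50% inhibition at 10 µM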
T1 sequence (P03956 whole entry): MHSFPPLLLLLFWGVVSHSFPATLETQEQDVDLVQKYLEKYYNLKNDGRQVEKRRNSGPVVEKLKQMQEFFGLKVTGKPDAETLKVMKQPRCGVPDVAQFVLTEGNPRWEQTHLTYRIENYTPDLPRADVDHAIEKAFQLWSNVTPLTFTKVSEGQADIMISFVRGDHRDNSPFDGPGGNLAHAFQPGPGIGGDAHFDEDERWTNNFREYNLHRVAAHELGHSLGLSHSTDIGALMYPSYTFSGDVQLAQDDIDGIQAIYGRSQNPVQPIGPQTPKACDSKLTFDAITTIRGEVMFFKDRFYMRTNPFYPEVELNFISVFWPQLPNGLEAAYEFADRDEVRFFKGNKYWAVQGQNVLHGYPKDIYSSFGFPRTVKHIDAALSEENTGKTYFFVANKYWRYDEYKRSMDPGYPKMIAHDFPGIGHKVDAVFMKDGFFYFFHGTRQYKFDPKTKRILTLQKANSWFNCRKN

Nitric oxide synthase 1 = Nitric oxide synthase 1 (Rattus norvegicus, UniProt P29476); format: tissue-based, Cerebellum; also: in other assays of this panel Not Active means under 50% inhibition at 10 µM
[1] = DRUGMATRIX: beta-Lactamase enzyme inhibition (substrate: Nitrocefin); design: species or system Bacillus cereus; conditions: Not Active = under 50% inhibition at 10 µM
Substance-K receptor = target: T2, Substance-K receptor (Homo sapiens, UniProt P21452); format: cell membranes, CHO, Membrane; conditions: cho; also: in other assays of this panel Not Active means under 50% inhibition at 10 µM
T2 sequence (P21452 whole entry): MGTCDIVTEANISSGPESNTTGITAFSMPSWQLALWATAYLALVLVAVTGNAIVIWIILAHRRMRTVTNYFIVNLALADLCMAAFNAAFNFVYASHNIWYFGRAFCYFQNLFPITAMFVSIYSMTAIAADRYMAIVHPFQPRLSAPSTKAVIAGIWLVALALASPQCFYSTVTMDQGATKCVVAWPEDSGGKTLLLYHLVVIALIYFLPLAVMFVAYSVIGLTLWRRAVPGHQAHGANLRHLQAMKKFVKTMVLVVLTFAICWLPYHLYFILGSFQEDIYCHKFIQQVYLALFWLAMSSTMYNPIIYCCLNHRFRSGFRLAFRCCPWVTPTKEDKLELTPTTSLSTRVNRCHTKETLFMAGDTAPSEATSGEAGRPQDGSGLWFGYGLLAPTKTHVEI

Neutrophil elastase = target: T3, Neutrophil elastase (Homo sapiens, UniProt P08246); format: tissue-based;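 also: inhibition of neutrophil elastase enzyme activity, measured with a p-nitroanilide-linked peptide substrate; in other assays of this panel Not Active means under 50% inhibition at 10 µM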
T3 sequence (P08246 whole entry): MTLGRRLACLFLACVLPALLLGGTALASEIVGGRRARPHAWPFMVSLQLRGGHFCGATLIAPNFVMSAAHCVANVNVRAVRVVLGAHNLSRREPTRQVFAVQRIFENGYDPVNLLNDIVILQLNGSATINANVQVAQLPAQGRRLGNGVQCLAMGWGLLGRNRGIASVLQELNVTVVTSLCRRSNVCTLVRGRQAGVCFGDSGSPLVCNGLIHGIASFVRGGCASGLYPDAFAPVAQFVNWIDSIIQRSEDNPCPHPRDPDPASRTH

[2] = DRUGMATRIX: Calcium Channel Type L, Dihydropyridine radioligand binding (ligand: [3H] Nitrendipine); format: cell membranes, Rattus norvegicus, Wistar, Cerebral cortex, Membrane; conditions: Not Active = under 50% inhibition at 10 µM
Thromboxane-A synthase = target: T4, Thromboxane-A synthase (Homo sapiens, UniProt P24557); test: biochemical; format: tissue-based, Platelet
T4 sequence (P24557 whole entry): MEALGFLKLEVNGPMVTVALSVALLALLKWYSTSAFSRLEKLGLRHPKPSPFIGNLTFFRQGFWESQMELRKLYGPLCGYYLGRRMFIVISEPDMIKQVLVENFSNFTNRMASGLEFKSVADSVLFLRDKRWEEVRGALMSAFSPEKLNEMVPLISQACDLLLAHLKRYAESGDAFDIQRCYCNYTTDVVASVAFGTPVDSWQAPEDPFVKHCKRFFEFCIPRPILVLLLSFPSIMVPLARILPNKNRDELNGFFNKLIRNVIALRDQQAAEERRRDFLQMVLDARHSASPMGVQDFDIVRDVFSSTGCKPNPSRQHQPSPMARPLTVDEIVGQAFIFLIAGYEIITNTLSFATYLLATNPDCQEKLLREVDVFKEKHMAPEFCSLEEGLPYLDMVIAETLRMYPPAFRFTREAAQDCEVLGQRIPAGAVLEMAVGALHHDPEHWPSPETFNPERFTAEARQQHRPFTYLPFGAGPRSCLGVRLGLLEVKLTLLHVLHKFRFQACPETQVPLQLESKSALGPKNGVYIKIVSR

Chain of Nitric oxide synthase 1 (P29476 whole entry): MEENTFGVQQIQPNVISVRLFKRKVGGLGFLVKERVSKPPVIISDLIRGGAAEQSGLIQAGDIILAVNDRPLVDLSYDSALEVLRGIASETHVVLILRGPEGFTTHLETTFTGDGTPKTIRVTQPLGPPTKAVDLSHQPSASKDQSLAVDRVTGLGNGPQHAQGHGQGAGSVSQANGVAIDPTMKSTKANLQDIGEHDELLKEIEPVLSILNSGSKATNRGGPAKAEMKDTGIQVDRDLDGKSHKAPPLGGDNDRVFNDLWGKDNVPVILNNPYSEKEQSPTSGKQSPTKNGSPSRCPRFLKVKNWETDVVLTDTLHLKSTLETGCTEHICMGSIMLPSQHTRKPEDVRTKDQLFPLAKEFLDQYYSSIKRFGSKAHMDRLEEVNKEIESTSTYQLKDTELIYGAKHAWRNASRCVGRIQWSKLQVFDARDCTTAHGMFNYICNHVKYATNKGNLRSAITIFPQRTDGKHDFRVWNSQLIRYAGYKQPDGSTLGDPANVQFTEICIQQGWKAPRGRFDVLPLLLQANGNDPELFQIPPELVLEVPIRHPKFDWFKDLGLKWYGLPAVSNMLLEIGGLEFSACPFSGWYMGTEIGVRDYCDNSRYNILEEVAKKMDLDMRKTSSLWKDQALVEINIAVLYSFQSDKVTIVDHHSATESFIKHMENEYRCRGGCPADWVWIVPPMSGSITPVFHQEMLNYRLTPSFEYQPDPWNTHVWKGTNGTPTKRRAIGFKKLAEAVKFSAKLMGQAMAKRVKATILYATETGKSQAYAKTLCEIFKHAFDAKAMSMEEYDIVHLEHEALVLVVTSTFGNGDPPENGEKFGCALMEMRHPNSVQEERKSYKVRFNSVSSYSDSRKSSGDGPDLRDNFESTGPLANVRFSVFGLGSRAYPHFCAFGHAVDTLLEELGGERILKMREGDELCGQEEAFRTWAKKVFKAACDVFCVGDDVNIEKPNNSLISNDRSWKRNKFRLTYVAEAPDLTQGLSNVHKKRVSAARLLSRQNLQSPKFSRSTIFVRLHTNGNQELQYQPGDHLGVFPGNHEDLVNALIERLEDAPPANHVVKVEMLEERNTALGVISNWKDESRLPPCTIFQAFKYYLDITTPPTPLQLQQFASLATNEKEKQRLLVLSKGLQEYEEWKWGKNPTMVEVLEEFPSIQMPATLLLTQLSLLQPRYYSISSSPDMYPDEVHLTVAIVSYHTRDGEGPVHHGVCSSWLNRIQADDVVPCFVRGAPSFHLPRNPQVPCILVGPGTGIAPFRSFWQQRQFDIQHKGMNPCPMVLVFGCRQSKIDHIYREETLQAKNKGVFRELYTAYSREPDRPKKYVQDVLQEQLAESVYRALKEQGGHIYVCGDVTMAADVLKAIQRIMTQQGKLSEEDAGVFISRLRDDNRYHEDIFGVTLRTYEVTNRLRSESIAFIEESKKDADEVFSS

SMILES	IC50 (Interstitial collagenase)	IC50 (Nitric oxide synthase 1)	IC50 [1]	Ki [1]	IC50 (Substance-K receptor)	IC50 (Neutrophil elastase)	IC50 [2]	Ki [2]	IC50 (Thromboxane-A synthase; platelet)	IC50 ([2]; read-out: IC50) [nM]	Ki ([2]; read-out: Ki) [nM]	IC50 (Thromboxane-A synthase; read-out: IC50) [nM]
CC1(C)[C@H](C(=O)O)N2C(=O)C[C@H]2S1(=O)=O [SULBACTAM]	Not Active	Not Active	Not Active	Not Active	Not Active	Not Active	Not Active	Not Active	Not Active	–	–	–
CCOC(=O)C1=C(C)NC(C)=C(C(=O)OCC)C1c1ccccc1/C=C/C(=O)OC(C)(C)C [LACIDIPINE]	Not Active	Not Active	Not Active	Not Active	Not Active	Not Active	–	–	–	0.4	0.257	1690
CC(N)C12CC3CC(CC(C3)C1)C2 (stereo unspecified) [RIMANTADINE]	Not Active	Not Active	Not Active	Not Active	Not Active	Not Active	Not Active	Not Active	Not Active	–	–	–
CO[C@@]12[C@H](COC(N)=O)C3=C(C(=O)C(C)=C(N)C3=O)N1C[C@@H]1N[C@@H]12 [MITOMYCIN]	Not Active	Not Active	Not Active	Not Active	Not Active	Not Active	Not Active	Not Active	Not Active	–	–	–
